Key:
[1] = target: T1, Tubulin (Homo sapiens) (UniProt P68371+Q9H4B7+P0DPH7+P68366+Q13509+Q71U36+P04350+Q3ZCM7+P07437+P68363+Q9BQE3+Q6PEY2+Q13885+Q9BVA1+Q9BUF5); experiment: Binding affinity to microtubules, activity expressed as ID50 of compound/ID50 of paclitaxel; format: protein-complex assay
[2] = target: T1, Tubulin (Homo sapiens); experiment: Binding affinity to microtubules, activity expressed as log 1/ID50 of compound/ID50 of paclitaxel; format: protein-complex assay

Row | Structure (SMILES) | ID50 ratio [1] | Log 1/ratio [2]
1 | CC(=O)O[C@H]1C(=O)[C@@]2(C)[C@H]([C@H](OC(=O)c3ccccc3)[C@]3(O)C[C@H](OC(=O)[C@H](O)[C@@H](NC(=O)c4ccc(C)cc4)c4ccccc4)C(C)=C1C3(C)C)[C@]1(OC(C)=O)CO[C@@H]1C[C@@H]2O | 1.6 | -0.204
2 | CC(=O)O[C@H]1C(=O)[C@@]2(C)[C@H]([C@H](OC(=O)c3ccccc3)[C@]3(O)C[C@H](OC(=O)[C@H](O)[C@@H](NC(=O)CC(C)(C)C)c4ccccc4)C(C)=C1C3(C)C)[C@]1(OC(C)=O)CO[C@@H]1C[C@@H]2O | 0.7 | 0.155
3 | CC(=O)O[C@H]1C(=O)[C@@]2(C)[C@H]([C@H](OC(=O)c3ccccc3)[C@]3(O)C[C@H](OC(=O)[C@H](O)[C@@H](N)c4ccccc4)C(C)=C1C3(C)C)[C@]1(OC(C)=O)CO[C@@H]1C[C@@H]2O | 44 | -1.64
4 | CC(=O)O[C@@]12CO[C@@H]1C[C@H](O)[C@@]1(C)C(=O)[C@H](O)C3=C(C)[C@@H](OC(=O)[C@H](O)[C@@H](NC(=O)CCCC(=O)O)c4ccccc4)C[C@@](O)([C@@H](OC(=O)c4ccccc4)[C@H]21)C3(C)C | 1 | 0
5 | COc1ccc([C@H](NC(=O)c2ccccc2)[C@@H](O)C(=O)O[C@H]2C[C@@]3(O)[C@@H](OC(=O)c4ccccc4)[C@@H]4[C@]5(OC(C)=O)CO[C@@H]5C[C@H](O)[C@@]4(C)C(=O)[C@H](OC(C)=O)C(=C2C)C3(C)C)cc1 | 0.5 | 0.301
6 | CC(=O)O[C@H]1C(=O)[C@@]2(C)[C@H]([C@H](OC(=O)c3ccccc3)[C@]3(O)C[C@H](OC(=O)[C@H](O)[C@@H](NC(=O)c4ccccc4)c4ccc(C)cc4)C(C)=C1C3(C)C)[C@]1(OC(C)=O)CO[C@@H]1C[C@@H]2O | 2.4 | -0.38
7 | CC(=O)O[C@H]1C(=O)[C@@]2(C)[C@H]([C@H](OC(=O)c3ccccc3)[C@]3(O)C[C@H](OC(=O)[C@H](O)[C@@H](NC(=O)c4ccccc4)c4ccc(Cl)cc4)C(C)=C1C3(C)C)[C@]1(OC(C)=O)CO[C@@H]1C[C@@H]2O | 1.9 | -0.279
8 | CC(=O)O[C@H]1C(=O)[C@@]2(C)[C@H]([C@H](OC(=O)c3ccccc3)[C@]3(O)C[C@H](OC(=O)[C@H](NC(=O)c4ccccc4)[C@@H](O)c4ccccc4)C(C)=C1C3(C)C)[C@]1(OC(C)=O)CO[C@@H]1C[C@@H]2O | 10 | -1
9 | CC(=O)O[C@@H](C(=O)O[C@H]1C[C@@]2(O)[C@@H](OC(=O)c3ccccc3)[C@@H]3[C@]4(OC(C)=O)CO[C@@H]4C[C@H](O)[C@@]3(C)C(=O)[C@H](O)C(=C1C)C2(C)C)[C@@H](NC(=O)OC(C)(C)C)c1ccccc1 | 10 | -1.48
10 | CC(=O)O[C@@]12CO[C@@H]1C[C@H](OC(=O)CN)[C@@]1(C)C(=O)[C@H](OC(=O)CN)C3=C(C)[C@@H](OC(=O)[C@H](O)[C@@H](NC(=O)OC(C)(C)C)c4ccccc4)C[C@@](O)([C@@H](OC(=O)c4ccccc4)[C@H]21)C3(C)C | 1.2 | -0.0792
11 | CC(=O)O[C@H]1C(=O)[C@]2(C)[C@@H](OC(=O)c3ccccc3)C[C@H]3OC[C@@]3(OC(C)=O)[C@H]2[C@H](OC(=O)c2ccccc2)[C@]2(O)C[C@H](OC(=O)[C@H](O)[C@@H](NC(=O)c3ccccc3)c3ccccc3)C(C)=C1C2(C)C | 1.7 | -0.23
12 | CC(=O)O[C@H]1C(=O)[C@@]2(C)[C@H]([C@H](OC(=O)c3ccccc3)[C@]3(O)C[C@H](OC(=O)[C@H](O)[C@@H](NC(=O)c4cccc(Cl)c4)c4ccccc4)C(C)=C1C3(C)C)[C@]1(OC(C)=O)CO[C@@H]1C[C@@H]2O | 2 | -0.301
13 | CC(=O)O[C@H]1C(=O)[C@@]2(C)[C@H]([C@H](OC(=O)c3ccccc3)[C@]3(O)C[C@H](OC(=O)[C@H](O)[C@@H](NC(=O)c4ccccc4)c4ccc5ccccc5c4)C(C)=C1C3(C)C)[C@]1(OC(C)=O)CO[C@@H]1C[C@@H]2O | 7.1 | -0.851
14 | CC(=O)O[C@H]1C(=O)[C@@]2(C)[C@H]([C@H](OC(=O)c3ccccc3)[C@]3(O)C[C@H](OC(=O)[C@@H](NC(=O)OC(C)(C)C)[C@H](O)c4ccccc4)C(C)=C1C3(C)C)[C@]1(OC(C)=O)CO[C@@H]1C[C@@H]2O | 108 | -2.03
15 | CC(=O)O[C@H]1C[C@]2(C)[C@@H](O)C[C@H]3OC[C@@]3(OC(C)=O)[C@H]2[C@H](OC(=O)c2ccccc2)[C@@]2(O)C[C@H](OC(=O)[C@H](O)[C@@H](NC(=O)c3ccccc3)c3ccccc3)C(C)C1C2(C)C (some centres not stated) | 3 | -0.477
16 | CC(=O)O[C@@]12CO[C@@H]1C[C@H](O)[C@@]1(C)C(=O)[C@H](O)C3=C(C)[C@@H](OC(=O)[C@H](O)[C@H](NC(=O)c4ccccc4)c4ccccc4)C[C@@](O)([C@@H](OC(=O)c4ccccc4)[C@H]21)C3(C)C | 1.3 | -0.114
17 | CC(=O)O[C@H]1C(=O)[C@@]2(C)[C@H]([C@H](OC(=O)c3ccccc3)[C@]3(O)C[C@H](OC(=O)[C@H](O)[C@@H](NC(=O)c4ccc(C(F)(F)F)cc4)c4ccccc4)C(C)=C1C3(C)C)[C@]1(OC(C)=O)CO[C@@H]1C[C@@H]2O | 6 | -0.778
18 | CC(=O)O[C@H]1C(=O)[C@]2(C)[C@@H](OC(=O)c3ccc(N=[N+]=[N-])cc3)C[C@H]3OC[C@@]3(OC(C)=O)[C@H]2[C@H](OC(=O)c2ccccc2)[C@]2(O)C[C@H](OC(=O)[C@H](O)[C@@H](NC(=O)c3ccccc3)c3ccccc3)C(C)=C1C2(C)C | 21.4 | 

Row | Structure (SMILES) | ID50 ratio [1] | Log 1/ratio [2]
19 | CC(=O)O[C@H]1C(=O)[C@@]2(C)[C@H]([C@H](OC(=O)c3ccccc3)[C@]3(O)C[C@H](OC(=O)[C@@H](C)O)C(C)=C1C3(C)C)[C@]1(OC(C)=O)CO[C@@H]1C[C@@H]2O | 5.6 | 
20 | CC(=O)O[C@@]12CO[C@@H]1C[C@H](O)[C@@]1(C)C(=O)[C@H](O)C3=C(C)[C@@H](OC(=O)C[C@@H](O)[C@@H](NC(=O)OC(C)(C)C)c4ccccc4)C[C@@](O)([C@@H](OC(=O)c4ccccc4)[C@H]21)C3(C)C | > 27 | 
21 | CCC(=O)O[C@H]1C[C@@]2(O)[C@@H](OC(=O)c3ccccc3)[C@@H]3[C@]4(OC(C)=O)CO[C@@H]4C[C@H](O)[C@@]3(C)C(=O)[C@H](OC(C)=O)C(=C1C)C2(C)C | 52 | 
22 | CC(=O)O[C@H]1C(=O)[C@@]2(C)[C@H]([C@H](OC(=O)c3ccccc3)[C@]3(O)C[C@H](OC(=O)[C@H](O)[C@@H](NC(=O)CC(C)C)c4ccccc4)C(C)=C1C3(C)C)[C@]1(OC(C)=O)CO[C@@H]1C[C@@H]2O | 1.2 | 
23 | CC(=O)O[C@H]1C(=O)[C@@]2(C)[C@H]([C@H](OC(=O)c3ccccc3)[C@]3(O)C[C@H](OC(=O)[C@H](O)CNC(=O)c4ccccc4)C(C)=C1C3(C)C)[C@]1(OC(C)=O)CO[C@@H]1C[C@@H]2O | 5.6 | 
24 | CC(=O)O[C@H]1C(=O)[C@@]2(C)[C@H]([C@H](OC(=O)c3ccccc3)[C@]3(O)C[C@H](OC(=O)[C@H](O)[C@@H](NC(=O)c4ccc([N+](=O)[O-])cc4)c4ccccc4)C(C)=C1C3(C)C)[C@]1(OC(C)=O)CO[C@@H]1C[C@@H]2O | 2 | 
25 | CC(=O)O[C@H]1C(=O)[C@]2(C)[C@@H](OC(=O)c3ccc(C(=[N+]=[N-])C(F)(F)F)cc3)C[C@H]3OC[C@@]3(OC(C)=O)[C@H]2[C@H](OC(=O)c2ccccc2)[C@]2(O)C[C@H](OC(=O)[C@H](O)[C@@H](NC(=O)c3ccccc3)c3ccccc3)C(C)=C1C2(C)C | 3.4 | 
26 | CC(=O)O[C@H]1C(=O)[C@@]2(C)[C@H]([C@H](OC(=O)c3ccccc3)[C@]3(O)C[C@H](OC(=O)[C@H](O)[C@@H](NC(=O)c4c(F)c(F)c(N=[N+]=[N-])c(F)c4F)c4ccccc4)C(C)=C1C3(C)C)[C@]1(OC(C)=O)CO[C@@H]1C[C@@H]2O | 4.6 | 
27 | CC(=O)O[C@H]1C(=O)[C@@]2(C)[C@H]([C@H](OC(=O)c3ccccc3)[C@]3(O)C[C@H](OC(=O)[C@H](O)[C@@H](NC(=O)OCc4ccccc4)c4ccccc4)C(C)=C1C3(C)C)[C@]1(OC(C)=O)CO[C@@H]1C[C@@H]2O | 3.3 | 
28 | CC(=O)O[C@H]1C(=O)[C@@]2(C)[C@H]([C@H](OC(=O)c3ccccc3)[C@]3(O)C[C@H](OC(=O)[C@H](O)[C@@H](NC(=O)c4ccccc4)c4ccc(Cl)c(Cl)c4)C(C)=C1C3(C)C)[C@]1(OC(C)=O)CO[C@@H]1C[C@@H]2O | 7.1 | 
29 | CC(=O)O[C@H]1C(=O)[C@@]2(C)[C@H]([C@H](OC(=O)c3ccccc3)[C@]3(O)C[C@H](OC(=O)[C@H](O)[C@@H](NC(=O)c4cccc(N(C)C)c4)c4ccccc4)C(C)=C1C3(C)C)[C@]1(OC(C)=O)CO[C@@H]1C[C@@H]2O | 1.4 | 
30 | CC(=O)O[C@H]1C(=O)[C@@]2(C)[C@H]([C@H](OC(=O)c3ccccc3)[C@]3(O)C[C@H](OC(=O)[C@H](O)[C@@H](NC(=O)c4ccc(Cl)c(Cl)c4)c4ccccc4)C(C)=C1C3(C)C)[C@]1(OC(C)=O)CO[C@@H]1C[C@@H]2O | 2.1 | 
31 | CC(=O)O[C@H]1C(=O)[C@@]2(C)[C@H]([C@H](OC(=O)c3ccccc3)[C@]3(O)C[C@H](OC(=O)[C@H](O)[C@@H](NC(=O)c4ccc(F)cc4)c4ccccc4)C(C)=C1C3(C)C)[C@]1(OC(C)=O)CO[C@@H]1C[C@@H]2O | 1.2 | 
32 | CC(=O)O[C@H]1C(=O)[C@@]2(C)[C@H]([C@H](OC(=O)c3ccccc3)[C@]3(O)C[C@H](OC(=O)[C@H](O)[C@@H](NC(=O)c4ccccc4)c4ccoc4)C(C)=C1C3(C)C)[C@]1(OC(C)=O)CO[C@@H]1C[C@@H]2O | 0.9 | 
33 | CC(=O)O[C@H]1C(=O)[C@@]2(C)[C@H]([C@H](OC(=O)c3ccccc3)[C@]3(O)C[C@H](OC(=O)[C@@H](O)Cc4ccccc4)C(C)=C1C3(C)C)[C@]1(OC(C)=O)CO[C@@H]1C[C@@H]2O | 15.7 | 
34 | CC(=O)O[C@H]1C(=O)[C@@]2(C)[C@H]([C@H](OC(=O)c3ccccc3)[C@]3(O)C[C@H](OC(=O)[C@H](O)[C@@H](NC(=O)c4ccccc4)c4ccncc4)C(C)=C1C3(C)C)[C@]1(OC(C)=O)CO[C@@H]1C[C@@H]2O | 0.4 | 
35 | CC(=O)O[C@H]1C(=O)[C@@]2(C)[C@H]([C@H](OC(=O)c3ccccc3)[C@]3(O)C[C@H](OC(=O)[C@H](O)[C@@H](NC(=O)c4ccc(N=[N+]=[N-])cc4)c4ccccc4)C(C)=C1C3(C)C)[C@]1(OC(C)=O)CO[C@@H]1C[C@@H]2O | 2 | 
